Results published in patent US20110318277A1, “TACROLIMUS COMPOSITIONS FOR AEROSOL ADMINISTRATION” (APT Pharmaceuticals, Inc. University of Maryland, Baltimore, priority 2010, published 2011).

Key:
[1] = Particle size of jet-nebulized tacrolimus aerosol; assay type: physicochemical; conditions: jet-nebulizer
[2] = Aerosol exposure study of tacrolimus in rats, blood and lung pharmacokinetics; assay type: in vivo, male Sprague-dawley rats; conditions: rat; for AUClast / Tmax: lung; for Cmax: 30 min aerosol exposure
Description: A total of 54 male Sprague-dawley rats of approximately 250 g body weight were exposed to aerosols of tacrolimus (in a propylene-glycol:ethanol mixture) generated by jet-nebulizer for 30 minutes. […] Estimated deposited doses for the 30 minute exposure (assuming 10% deposition efficiency) were 0.072 and 0.256 mg/kg for the “low” and “high” dose groups. Lung and blood samples were obtained for groups of animals (n=3/time point).

calcineurin = conditions: as a calcineurin inhibitor; Kino et al. 1987; cited from earlier work
[3] = Solubility of tacrolimus in ethanol and hydrofluoroalkanes; assay type: physicochemical
[4] = Chemical stability of tacrolimus in ethanol as a function of temperature; assay type: physicochemical; conditions: 200 mg/ml in ethanol, around day 30
Description: The degradant levels contained in solutions of tacrolimus dissolved in ethanol at a fixed concentration of 200 mg/ml were determined over time as a function of temperature. Samples were stored at the following temperatures: 35° C., 45° C., and 55° C.

[5] = Chemical stability of tacrolimus in ethanol as a function of concentration (HPLC); assay type: physicochemical; conditions: 55 °C, 26 days
Description: The chemical stability of tacrolimus in ethanol at different concentrations ranging from 100 to 400 mg/ml when stored at 55° C. was investigated.
Samples were analyzed using reverse phase HPLC with an acetonitrile-water gradient and UV detection. Samples were prepared in a non-aqueous medium, i.e., acetonitrile, to limit the interconversion of tautomers and to promote stability. Column temperature was set at 60° C. to further promote equilibrium between the cis-trans isomers. The gradient was set at 5% acetronitrile with a run time of 20 minutes. Acetic acid (0.002%) was added to mobile phase A (water). A solution of tacrolimus in 1:1 acetonitrile-water was incubated at 55° C. for 45 minutes to obtain an equilibrium mixture of the 3 tautomers so that retention times of each tautomer could be obtained.

[6] = Aerosol exposure study of tacrolimus in rats, blood and lung pharmacokinetics; assay type: in vivo, male Sprague-dawley rats; conditions: rat
[7] = male, Sprague-Dawley, inhaled or intranasal, blood, High Inhalation 0.256 mg/kg
[8] = male, Sprague-Dawley, inhaled or intranasal, blood, Low Inhalation 0.072 mg/kg
[9] = male, Sprague-Dawley, 0.4 mg/kg, blood, IV Bolus 0.400 mg/kg
[10] = male, Sprague-Dawley, 0.4 mg/kg, lung, IV Bolus 0.400 mg/kg

For `C=CC[C@@H]1/C=C(\C)C[C@H](C)C[C@H](OC)[C@H]2O[C@@](O)(C(=O)C(=O)N3CCCC[C@H]3C(=O)O[C@H](/C(C)=C/[C@@H]3CC[C@@H](O)[C@H](OC)C3)[C@H](C)[C@@H](O)CC1=O)[C@H](C)C[C@@H]2OC` [tacrolimus, 17-allyl-1,14-dihydroxy-12-[2-(4-hydroxy-3-methoxycyclohexyl)-1-methylvinyl]-23,25-dimethyoxy-13,19,21,27-tetramethyl-11,28-dioxa-4-azatricyclo-[22.3.1.0^4,9]octacos-18-ene-2,3,10,16-tetraone], the “MMAD (GSD)” value ([1]; 50 mg/ml solution in propylene-glycol:ethanol mixture) was 2.53 (1.71) μm, the “MMAD (GSD)” value ([1]; 150 mg/ml solution in propylene-glycol:ethanol mixture) was 2.56 (1.73) μm and the AUClast ([2]; High Inhalation 0.256 mg/kg) was 22750 ng·h/g. The AUClast ([2]; Low Inhalation 0.072 mg/kg) was 19722 ng·h/g, the Cmax [2, 7] was 149 ng/mL and the AUC(0-t) [2, 7] was 194 ng·h/mL. It also gave a Cmax [2, 8] of 40 ng/mL, an AUC(0-t) [2, 8] of 121 ng·h/mL and a half-life [2, 8] of 179 min. For the same compound, the Tmax ([2]; male, Sprague-Dawley, inhaled or intranasal, High Inhalation 0.256 mg/kg) was 4.98 min, the Tmax ([2]; male, Sprague-Dawley, inhaled or intranasal, Low Inhalation 0.072 mg/kg) was 4.98 min and the “potency relative to cyclosporine” value (calcineurin) was “up to one hundred times more potent”. For the same compound, the solubility in ethanol ([3]; ethanol) was “readily soluble”, the solubility in hydrofluoroalkanes ([3]; hydrofluoroalkanes) was “essentially insoluble” and the impurity level ([4]; stored at 35 °C) was “about 3%”. For the same compound, the impurity level ([4]; stored at 55 °C) was “about 11%”, the degradation of tacrolimus ([5]; 100 mg/ml in ethanol) was “approximately 7%” and the degradation of tacrolimus ([5]; 400 mg/ml in ethanol) was “less than 1%”. For the same compound, the AUClast ([6]; lung, IV Bolus 0.400 mg/kg) was 334095 ng·h/g, the AUC(0-t) [6, 9] was 179 ng·h/mL and the Cmax [6, 9] was 78.2 ng/mL. The Tmax [6, 9] was 4.98 min, the half-life [6, 9] was 114 min and the Cmax [6, 10] was 19100 ng/g. For the same compound, the Tmax [6, 10] was 4.98 min, the half-life [6, 10] was 1470 min and the Tmax [6, 7] was 4.98 min. It also gave a half-life [6, 7] of 104 min, a Tmax [6, 8] of 4.98 min and a Cmax ([6]; male, Sprague-Dawley, inhaled or intranasal, lung, High Inhalation 0.256 mg/kg, 30 min aerosol exposure) of 18100 ng/g. The half-life ([6]; male, Sprague-Dawley, inhaled or intranasal, lung, High Inhalation 0.256 mg/kg) was 1400 min, the Cmax ([6]; male, Sprague-Dawley, inhaled or intranasal, lung, Low Inhalation 0.072 mg/kg, 30 min aerosol exposure) was 9960 ng/g and the half-life ([6]; male, Sprague-Dawley, inhaled or intranasal, lung, Low Inhalation 0.072 mg/kg) was 548 min.
